# Measurements: article PMC9822155, “Synthesis and Antiproliferative Activity against Cancer Cells of Indole-Aryl-Amide Derivatives” (Molecules, 2022)
# Key:
# [1] = test system: MCF7 (human breast cancer) cells; test: MTT viability assay, MCF7; format: cell-based; conditions: Homo sapiens, MCF7; MTT, 24 h
# Description: (§1) To investigate whether the compounds have an antitumor activity, we performed in vitro viability assays against a panel of cancer cell lines: HT29 (human colorectal adenocarcinoma), HeLa (human cervical carcinoma), IGROV-1 (human ovarian carcinoma), MCF7 (human breast cancer), PC-3 (human prostate adenocarcinoma), and Jurkat J6 (human […]). The I407 (human embryonic intestinal) and 3T3 (mouse embryonic fibroblast) cells were used as controls. The growth inhibitory concentration was determined by incubating the cells with increasing concentrations (0.01–500 μM) of the compounds for 24 h. Data obtained from cell growth assays were elaborated to assess the concentration of cell viability (IC50) and selectivity indices (SI), and the results are shown in Table 2 and Table 3, respectively.
# (§2) HT29 human colorectal adenocarcinoma cells, HeLa human cervix adenocarcinoma cells, MCF7 human breast adenocarcinoma cells, PC-3 human prostate adenocarcinoma cells, J6 Jurkat Clone E6-1 acute T cell leukemia, the healthy I407 human intestine cells, and mouse embryonic fibroblast 3T3 fibroblasts as controls cell lines were purchased from American Type Culture Collection (ATCC, Manassas, VA). The human ovarian cancer cell line IGROV1 has been kindly provided by Prof. Colnaghi (Istituto Nazionale Tumori (IRCCS) (Milano, Italy). Cells were cultured in RPMI 1640 medium (Labtek Eurobio, Milan, Italy), supplemented with 10% FCS (Euroclone, Milano, Italy) and 2 mM L-glutamine (Sigma-Aldrich, Milano, Italy), at 37 °C, and a 5% CO2 atmosphere. The compounds were dissolved in DMSO in a 30–40 mM stock solution. In cell treatments, the final DMSO concentration never exceeded 0.1%.
# (§3) Cells were seeded at 1.5 × 10^4 cells/well in a 96-well culture plastic plate (Sarsted, Milan, Italy), and after 24 h of growth were exposed to increasing concentrations of each distinct compound (from 0.010 μM to 500 μM) solubilized in RPMI 1640 medium. MTT assay was performed according to the literature. In brief, after 24 h of treatment, the culture medium was replaced with 0.1 mL of 3-(4,5-dimethylthiazolyl-2)-2,5-diphenyltetrazolium bromide (MTT, Sigma-Aldrich, Milano, Italy) dissolved in PBS at the concentration of 0.2 mg/mL, and samples were incubated for 2 h at 37 °C. The absorbance at 570 nm was measured using a multiwell plate reader (Tecan, Männemorf, Switzerland), and data were analyzed by Prism GraphPad software, and expressed as IC50 μM.
# [2] = test system: acetylated histones in HT29 cells; test: Histone acetylation, western blot of nuclear lysates; format: cell-based, human; conditions: HT29, 5 μM, 6 h
# Protocol: In order to identify acetylated histones, we analyzed the nuclear cell lysates by western blot using a 10% polyacrylammide gel electrophoresis. […] Differences in the density of the bands are thought to reflect differences in protein acetylation levels. Histone acetylation signals were quantified by densitometry and normalized on histone H1 (Figure 5).
# HT29 cells were seeded in dish and after 24 h they were treated for 6 h with compound 5 at final concentration of 5 µM. Cells were harvested, washed with 10 mM sodium butyrate in PBS, and nuclei were isolated in according to Amellem and Micheletti. The nuclear pellet was suspended in 0.1 mL ice-cold H2O using a Vortex mixer, and concentrated H2SO4 was added to the suspension to give a final concentration of 0.4 N. After incubation at 4 °C for 1 h, the suspension was centrifuged for 5 min at 14,000× g, and the supernatant was taken and mixed with 1 mL of acetone. After overnight incubation, the coagulate material was collected by microcentrifugation and air-dried. […] Proteins were quantified using a protein assay kit (Bio-Rad, Hercules, CA, USA). Histones were detected resolving samples on a 10% gel in MES buffer at 200 V for 40 min. […] After five washes with PBS-TWEEN 20 0.1%, antibody binding was detected by Amersham ECL Plus Western Blotting Detection System (GE Healthcare, Milan, Italy).
# [3] = test system: I407 (human embryonic intestinal) cells; test: MTT viability assay, I407; format: cell-based; conditions: 24 h, normal cells
# Description: as §1, §2, §3
# [4] = test system: Jurkat J6 cells; test: MTT viability assay, Jurkat J6; format: cell-based, human
# Description: as §1, §2, §3
# [5] = test system: CDKN1B, CDKN1A and Bax transcription in HT29 cells; test: Quantitative real-time PCR of CDKN1B, CDKN1A, Bax; format: cell-based, human; conditions: HT29, 5 μM, 6 h, normalized to G3PDH, vs. control
# Protocol: To verify whether the epigenetic modifications were related to changes in gene expression, we proceeded with the qtRT-PCR analysis and western blot of related protein products. Transcription levels of CDKN1B, CDKN1A, and Bax were analysed by RT-PCR performed on cDNA of HT29 control and treated with 5 μM of 5 for 6 h.
# 24 h after seeding, HT29 cells have been treated with 5 µM 5 for 6 h. Total RNA has been isolated by RNeasy Mini kit (Qiagen, Hilden, Germany) according to the manufacturer’s protocol. 1 μg of RNA has been reverse-transcribed with RevertAid First Strand cDNA Synthesis Kit (Fermentas, Ontario, Canada) by using oligo(dT) primers. The cDNA has been analyzed by quantitative Real-Time PCR (qRT-PCR), by employing the LightCycler FastStart DNA Master SYBR Green I Kit and the LightCycler 2.0 instrument (Roche Diagnostics, Manheim, Germany). Gene expression has been quantified by ΔΔCT method, by using G3PDH as the housekeeping gene. The following primers were used: 5′-[…]-3′ (forward) and 5′-[…]-3′ (reverse) for G3PDH detection, 5′-[…]-3′ (forward) and 5′-[…]-3′ (reverse) for p27 detection 5′-[…]-3′(forward) and 5′-[…]-3′ (reverse) for p21 WAF1 detection, 5′-GATGCGTCCACCAAGAAGC-3′ (forward) and 5′-CCGCCACAAAGATGGTCAC -3′ (reverse) for Bax detection.
smiles,measurement,setting,value
Nc1ccc(CN(Cc2ccc(O)cc2)C(=O)Cc2c[nH]c3ccccc23)cc1 [Compound 5],IC50,[1],> 500 µM
same,Histone H2/H3 acetylation,[2],did not modify the state of acetylation of H2/H3
same,Histone H4 acetylation,[2],induced H4 hyperacetylation
same,IC50 [µM] I407,[3],no activity
same,IC50,[3]; Homo sapiens,> 500 µM
same,Selectivity Index IC503T3/ IC50J6,[4]; 3T3 normal cells as reference,86.487
same,IC50,"[4]; Homo sapiens, Jurkat, MTT, 24 h",0.37 ± 0.04 µM
same,Bax gene expression (fold change),[5],2.58 ± 0.11
same,CDKN1A gene expression (fold change),[5],4.16 ± 0.53
same,CDKN1B gene expression,[5],did not modify the gene expression
